From patent publication US20160377635A1, “Measurement of Oxytocin and Vasopressin” (Martin-Protean LLC, priority 2013, published 2016)

What was measured:
[1] = target: albumin (Homo sapiens, UniProt P02768); experiment: incubation with free thiol containing albumin, acetone precipitation; format: in vitro ADME
Description: (§1) Oxytocin and vasopressin undergo disulfide exchange with abundant thiol containing compounds under aerobic conditions like those found in blood plasma. […] If albumin (1 mM) is added to that mixture all detectable oxytocin and vasopressin sequester with albumin upon acetone precipitation. Oxytocin immunoreactivity in plasma is associated with high molecular weight species (Szeto et al). When beta-mercaptoethanol (1 M) and histamine (30 mM) are added to plasma, oxytocin and vasopressin in the 1-100 nM range were recovered rather than the 1-100 pM range recovered without thiols or reported routinely with existing commercially available immunoreactivity tests. The mid nanomolar range is much more consistent with the concentrations required in biological assays for these compounds, such as inducing the lactation reflect with rabbit mammary tissue. Nanomolar concentrations for oxytocin and vasopressin are also far more consistent with the doses required for either peptide in intervention regimes.
Acetone extraction of the incubation clears oxytocin and vasopressin from the solution into the pellet with the albumin. In one embodiment, exceptionally short half-life of oxytocin is measured with immunoreactivity on acetone extracted fractions. Observation of disulfide exchange mediated accumulation of oxytocin on high molecular weight proteins in the plasma.

[2] = disulfide exchange with plasma thiols in the presence of air; format: physicochemical
Description: as §1
Incubating oxytocin and vasopressin them with glutathione at its plasma concentration in the presence of air (as in blood) induces oxytocin and vasopressin to disulfide exchange with glutathione and undergo additional oxidation resulting in the accumulation of diglutathione adducts (FIGS. 4A-C). This additional oxidation-containing product accumulates even in the presence of a vast excess of reducing equivalents in the form of remaining excess reduced glutathione. The introduction of air lead to a disulfide exchange result distinct from that observed in the published literature. The disulfide exchange is inhibited by EDTA which is added to most blood as a preservative. In the body the hormones undergo exchange, but in collected blood the EDTA will inhibit diglutathione formation unless the redox state of the collected blood is perturbed, as FIG. 5.

[3] = system: excised and bathed section of mammary gland tissue; conditions: cited from earlier work
[4] = reduced glutathione (1 mM) and oxygen, peptide ~10 nM
[5] = reduced glutathione, reduced cysteine (0.5 mM) and oxygen

Chain of albumin (P02768 25-609, species assumed): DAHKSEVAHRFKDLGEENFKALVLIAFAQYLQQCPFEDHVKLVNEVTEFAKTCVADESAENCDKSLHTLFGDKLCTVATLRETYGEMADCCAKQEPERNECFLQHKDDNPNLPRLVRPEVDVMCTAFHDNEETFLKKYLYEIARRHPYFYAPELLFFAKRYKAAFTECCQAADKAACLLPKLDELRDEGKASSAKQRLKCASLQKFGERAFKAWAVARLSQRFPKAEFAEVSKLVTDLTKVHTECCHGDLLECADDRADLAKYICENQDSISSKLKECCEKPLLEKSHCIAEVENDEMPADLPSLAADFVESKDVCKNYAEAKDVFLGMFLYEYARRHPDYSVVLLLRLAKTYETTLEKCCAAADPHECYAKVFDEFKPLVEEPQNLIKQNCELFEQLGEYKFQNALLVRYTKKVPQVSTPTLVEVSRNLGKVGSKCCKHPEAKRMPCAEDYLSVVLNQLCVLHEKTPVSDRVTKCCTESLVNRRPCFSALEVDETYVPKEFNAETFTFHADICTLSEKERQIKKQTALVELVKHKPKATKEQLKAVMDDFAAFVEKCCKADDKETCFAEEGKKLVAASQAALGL

Row | adsorption to albumin ([1]; pH 7.4) | Compound | adduct formation by disulfide exchange [2, 4] | adduct formation by disulfide exchange [2, 5] | linear response range for contraction response [3] [ng/mL] | adsorption to albumin ([1]; pH 7.4, room temperature (or 37° C.), with or without glutathione and cysteine)
1 | quantitative adsorption to albumin | CC[C@H](C)[C@@H]1NC(=O)[C@H](Cc2ccc(O)cc2)NC(=O)[C@@H](N)CSSC[C@@H](C(=O)N2CCC[C@H]2C(=O)N[C@@H](CC(C)C)C(=O)NCC(N)=O)NC(=O)[C@H](CC(N)=O)NC(=O)[C@H](CCC(N)=O)NC1=O [oxytocin] | form diglutathione adducts | form dicysteine adducts | 1 to 20 | –
2 | – | NC(=O)CC[C@@H]1NC(=O)[C@H](Cc2ccccc2)NC(=O)[C@H](Cc2ccc(O)cc2)NC(=O)[C@@H](N)CSSC[C@@H](C(=O)N2CCC[C@H]2C(=O)N[C@@H](CCCN=C(N)N)C(=O)NCC(N)=O)NC(=O)[C@H](CC(N)=O)NC1=O [vasopressin] | form diglutathione adducts | form dicysteine adducts | – | quantitative adsorption to albumin
